Marks after values point to notes of the source that are not given here.
Experiments:
[1] = system: amyloid fibrils of glycated BSA (BSA/MGO); experiment: Inhibition of amyloid fibril formation, ThT assay (BSA/MGO); format: biochemical, bovine; conditions: highest obtained, PESE 200, PIC 200, AMG 100 µg/mL
Procedure: The BSA-MGO assay was based on those described before, with some modifications. This experiment is based on the formation of fluorescent AGEs from the middle stage of protein glycation. MGO (1.5 mM) and BSA (3 mg/mL) were dissolved separately in 0.05 M phosphate buffer (pH 7.4) containing NaCl (100 mM) and NaN3 (0.02% w/v). Then, 300 μL of MGO was incubated with samples at different concentrations (dissolved in a buffer containing 60% ethanol) for an hour at 37 °C, in the dark, with constant stirring. After BSA (3 mg/mL) was added to the reaction mixture and incubation time was extended to 48 h at 37 °C in darkness. The rest of the procedure was the same as that for the BSA-glucose/fructose model that is described above. The percentage of the AGE inhibition and IC50 was calculated as described in Section 3.3.1.
The fibrillar state of modified BSA was determined with ThT as previously described. ThT is a probe that binds directly to amyloid fibrils to give a strong fluorescent signal and thus can be used to quantify β-amyloid due to protein glycation. Basically, 30 μL of glycated protein (approx. 1 mg/mL), obtained as described previously, was mixed with 100 μL ThT reagent (10 μM ThT in 100 mM phosphate buffer, pH 7.0), and fluorescence was collected at excitation/emission wavelengths of 450/490 nm in a microplate reader (Infinite® 200 PRO, TECAN, Männedorf, Switzerland). […]

[2] = system: amyloid fibrils of glycated BSA (BSA/Fru + Glu); experiment: Inhibition of amyloid fibril formation, ThT assay (BSA/Fru + Glu); format: biochemical, bovine
Procedure: The formation of AGEs was measured after incubation of a system containing protein and carbohydrates. This assay was based on previous methods. The reaction system was obtained by adding 300 µL of plant extract or of the pure compound (at different concentrations), 150 µL D-fructose (200 mM), 150 µL of D-glucose (200 mM), and 300 µL of bovine serum albumin (BSA, 3 mg/mL) to a test tube. All these solutions, except plant extract, were dissolved in 0.05 M potassium phosphate buffer (pH 7.4) containing NaCl (100 mM) and NaN3 (0.02% w/v). The plant extract was prepared in a buffer containing 60% ethanol. The mixture was incubated in the dark at 37 °C for 7 days with constant stirring. After the incubation, 200 µL of the reaction mixture was transferred to a 96-well black plate, and fluorescent AGEs were measured using a microplate reader (Infinite® 200 PRO, TECAN, Männedorf, Switzerland) at λex = 360 and λem = 440 nm. […] The fluorescence readings for the experimental treatment were blanked against extract blanks to eliminate the baseline fluorescence of the sample. The percentage of the AGE inhibition and IC50 was calculated as described in Section 3.3.1.
The fibrillar state of modified BSA was determined with ThT as previously described. ThT is a probe that binds directly to amyloid fibrils to give a strong fluorescent signal and thus can be used to quantify β-amyloid due to protein glycation. […]

alpha-glucosidase = conditions: formation of p-nitrophenol; cited from earlier work
BEAS-2B cells = experiment: Intracellular ROS level (DCFH-DA) after NNKOAc; format: cell-based, human
Procedure: The generation of intracellular ROS in BEAS-2B, AML-12, and MCF-10A cells after treatments was measured as described previously. Briefly, DCFH-DA dye was readily taken up by cells and is subsequently hydrolyzed to DCFH, which can be oxidized to a measurable fluorescent product dichlorofluorescein (DCF). […] Cells with DMSO media (0.5%) served as the vehicle control. After treatments, DCFH-DA was added to the cell culture plates at a final concentration of 5 μM followed by 40 min incubation at dark. The fluorescence […] was then measured at an excitation and emission wavelength of 485 nm and 535 nm, using a microplate reader (Infinite® 200 PRO, TECAN, Männedorf, Switzerland).
BEAS-2B, MCF10-A, and AML-12, cells were purchased from the American Tissue Type Culture Collection (ATCC; CRL-9609, CRL-10317, and CRL-2254) and cultured with a specific medium. BEAS-2B cells were cultured with LHC-9 media at 37 °C in an incubator with 5% CO2. Culture flasks (polystyrene T75) were pre-coated with a mixture of 0.01 mg/mL fibronectin, 0.03 mg/mL bovine collagen type I, and 0.01 mg/mL bovine serum albumin were dissolved in LHC-9 medium overnight. […]

cultured myotubes = system: cultured myotubes; design: method as in PMID 25832644; conditions: in the absence of insulin; cited from earlier work
MTS cell viability assay = format: cell-based; conditions: human, MCF-10A cells, up to 100 µg/mL
Procedure: BEAS-2B, MCF10-A, and AML-12, cells were purchased from the American Tissue Type Culture Collection (ATCC; CRL-9609, CRL-10317, and CRL-2254) and cultured with a specific medium. BEAS-2B cells were cultured with LHC-9 media at 37 °C in an incubator with 5% CO2. […] Cells were grown to around 70% confluence on the culture flask, and passages (<10) were employed for all experimental conditions. MTS Cell Titer 96™ aqueous cell proliferation assay was used to determine cell viability. […] For that, 1 × 10^4 cells were plated on a 96-well plate with a growth medium of 100 μL/well. […] Fifteen microliters of MTS reagent (with PMS) was then added to each well and incubated for 3 h in the dark. Absorbance was recorded at 490 nm using a microplate reader (Infinite® 200 PRO, TECAN, Männedorf, Switzerland). For each experiment, cells with DMSO media served as control, and cells with only culture medium and MTS reagent served as the blank.

## Oc1cc(O)cc(/C=C/c2ccc(O)c(O)c2)c1 [PIC, 3,3′,4′,5-trans-tetrahydroxystilbene]
[1]
  Inhibition of Amyloid Fibrils (%), MGO: 100 ± 3.8 ^a %
[2]; abstract, glycation system not specified
  Inhibition of the formation of β-amyloid fibrils in vitro: up to 100%
[2]; highest obtained, PESE 200, PIC 200, AMG 100 µg/mL, BSA/Fru + Glu
  Inhibition of Amyloid Fibrils (%), Fructose + Glucose: 100 ± 5.3 ^a %
alpha-glucosidase
  Mechanism of alpha-glucosidase inhibition: non-competitive
BEAS-2B cells; 50 µg/mL, 3 h pretreatment, NNKOAc 100 µM
  Protection from oxidative stress (ROS) caused by the carcinogen, BEAS-2B: able to protect
BEAS-2B cells; NNKOAc at 100 µM, abstract, cell line and concentration not specified
  Protection of cultured human cells from oxidative stress caused by NNKOAc: capable of protecting
Cultured myotubes
  Glucose uptake in cultured myotubes: promoted glucose uptake
MTS cell viability assay
  viability at 24 h: > 80%

— PMC9267955, “Antidiabetic, Antiglycation, and Antioxidant Activities of Ethanolic Seed Extract of Passiflora edulis and Piceatannol In Vitro” (Molecules, 2022)
